Target: T1, human mGlu5a receptor (Homo sapiens, UniProt P41594)
T1 construct: expressed in transfected cells; host or cells: HEK-293 (monoclonal, stably transfected)
Assay: Intracellular Ca2+ mobilization assay (mGlu5 PAM)
Assay type: cell-based
Conditions: for EC50: HEK-293 cells stably transfected with human mGlu5a, L-glutamate added at EC20; for Efficacy [%]: maximal response in % of the maximal stimulatory effect obtained with saturating L-glutamate
Description: A monoclonal HEK-293 cell line stably transfected with a cDNA encoding for the human mGlu5a receptor was generated; for the work with mGlu5 Positive Allosteric Modulators (PAMs), a cell line with low receptor expression levels and low constitutive receptor activity was selected to allow the differentiation of agonistic versus PAM activity. Cells were cultured according to standard protocols (Freshney, 2000) in Dulbecco's Modified Eagle Medium with high glucose supplemented with 1 mM glutamine, 10% (vol/vol) heat-inactivated bovine calf serum, Penicillin/Streptomycin, 50 μg/ml hygromycin and 15 μg/ml blasticidin (all cell culture reagents and antibiotics from Invitrogen, Basel, Switzerland).
About 24 hrs before an experiment, 5×10^4 cells/well were seeded in poly-D-lysine coated, black/clear-bottomed 96-well plates. The cells were loaded with 2.5 μM Fluo-4AM in loading buffer (1×HBSS, 20 mM HEPES) for 1 hr at 37° C. and washed five times with loading buffer. The cells were transferred into a Functional Drug Screening System 7000 (Hamamatsu, Paris, France), and 11 half logarithmic serial dilutions of test compound at 37° C. were added and the cells were incubated for 10-30 min. with on-line recording of fluorescence. Following this pre-incubation step, the agonist L-glutamate was added to the cells at a concentration corresponding to EC20 (typically around 80 μM) with on-line recording of fluorescence; in order to account for day-to-day variations in the responsiveness of cells, the EC20 of glutamate was determined immediately ahead of each experiment by recording of a full dose-response curve of glutamate.
Responses were measured as peak increase in fluorescence minus basal (i.e. fluorescence without addition of L-glutamate), normalized to the maximal stimulatory effect obtained with saturating concentrations of L-glutamate. Graphs were plotted with the % maximal stimulatory using XLfit, a curve fitting program that iteratively plots the data using Levenburg Marquardt algorithm. The single site competition analysis equation used was y=A+((B−A)/(1+((x/C)D))), where y is the % maximal stimulatory effect, A is the minimum y, B is the maximum y, C is the EC50, x is the log 10 of the concentration of the competing compound and D is the slope of the curve (the Hill Coefficient). From these curves the EC50 (concentration at which half maximal stimulation was achieved), the Hill coefficient as well as the maximal response in % of the maximal stimulatory effect obtained with saturating concentrations of L-glutamate were calculated.
A depression of the signal observed after addition of the EC20 concentration of L-glutamate was indicative of an inhibitory activity of the test compound.

T1 sequence (P41594 21-1180 isoform P41594-2 limits assumed): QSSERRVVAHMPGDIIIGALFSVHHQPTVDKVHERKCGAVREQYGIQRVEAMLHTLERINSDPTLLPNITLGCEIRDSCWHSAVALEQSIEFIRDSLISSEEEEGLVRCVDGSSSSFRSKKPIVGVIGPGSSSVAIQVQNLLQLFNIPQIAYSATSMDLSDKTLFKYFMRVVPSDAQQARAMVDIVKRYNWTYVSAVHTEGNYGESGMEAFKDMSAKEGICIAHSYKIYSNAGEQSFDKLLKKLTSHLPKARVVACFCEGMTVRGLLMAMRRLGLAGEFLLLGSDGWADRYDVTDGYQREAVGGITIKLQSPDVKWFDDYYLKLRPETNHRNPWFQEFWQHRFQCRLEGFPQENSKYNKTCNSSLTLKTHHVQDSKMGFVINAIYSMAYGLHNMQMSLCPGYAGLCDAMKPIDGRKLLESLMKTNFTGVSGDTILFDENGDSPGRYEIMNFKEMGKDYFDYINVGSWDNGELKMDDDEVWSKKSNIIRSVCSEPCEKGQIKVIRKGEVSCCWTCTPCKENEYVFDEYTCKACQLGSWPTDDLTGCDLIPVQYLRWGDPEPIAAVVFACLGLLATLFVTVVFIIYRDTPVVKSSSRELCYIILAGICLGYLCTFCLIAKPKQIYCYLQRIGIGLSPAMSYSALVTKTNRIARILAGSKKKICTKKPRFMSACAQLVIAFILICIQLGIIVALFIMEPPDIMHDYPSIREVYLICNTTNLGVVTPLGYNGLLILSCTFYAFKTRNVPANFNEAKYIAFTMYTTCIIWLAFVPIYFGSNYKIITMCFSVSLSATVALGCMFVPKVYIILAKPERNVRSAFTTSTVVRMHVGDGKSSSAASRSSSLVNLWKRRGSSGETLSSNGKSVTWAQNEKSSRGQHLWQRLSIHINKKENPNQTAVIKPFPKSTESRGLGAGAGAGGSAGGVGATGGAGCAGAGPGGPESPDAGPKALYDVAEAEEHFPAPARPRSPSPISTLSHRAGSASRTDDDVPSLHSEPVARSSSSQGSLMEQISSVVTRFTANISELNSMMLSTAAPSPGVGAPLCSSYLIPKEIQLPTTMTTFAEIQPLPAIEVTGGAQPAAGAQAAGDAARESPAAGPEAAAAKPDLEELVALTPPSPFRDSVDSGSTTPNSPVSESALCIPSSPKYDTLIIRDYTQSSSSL

| EC50 | Efficacy [%] | Structure (SMILES) |
| --- | --- | --- |
| 10 nM | 45% | O=C1C[C@H]2CCC[C@H]2N1c1ccc(C#Cc2ccccc2)cn1 [Example 1, (3aR,6aR)-1-(5-(phenylethynyl)pyridin-2-yl)hexahydrocyclopenta[b]pyrrol-2(1H)-one] |
| 10 nM | 48% | O=C1C[C@H]2CCC[C@H]2N1c1ccc(C#Cc2cccc(F)c2)cn1 [Example 2, (3aR,6aR)-1-(5-((3-Fluorophenyl)ethynyl)pyridin-2-yl)hexahydrocyclopenta[b]pyrrol-2(1H)-one] |
| 10 nM | 44% | O=C1C[C@H]2CCC[C@H]2N1c1ccc(C#Cc2ccc(F)cc2)cn1 [Example 3, (3aR,6aR)-1-(5-((4-Fluorophenyl)ethynyl)pyridin-2-yl)hexahydrocyclopenta[b]pyrrol-2(1H)-one] |
| 8 nM | 19% | O=C1C[C@H]2CCC[C@H]2N1c1ccc(C#Cc2cc(F)ccc2F)cn1 [Example 4, (3aR,6aR)-1-(5-((2,5-Difluorophenyl)ethynyl)pyridin-2-yl)hexahydrocyclopenta[b]pyrrol-2(1H)-one] |
|  | 129% | CC1(C)CC(=O)N(c2ccc(C#Cc3ccccc3)cn2)C1 [Ref. 1 Ex. 13, reference compound] |
|  | 100% | CC1(C)CC(=O)N(c2ccc(C#Cc3cccc(F)c3)cn2)C1 [Ref. 1 Ex. 40, reference compound] |
|  | 81% | O=C1CC2(CCCC2)CN1c1ccc(C#Cc2ccccc2)cn1 [Ref. 1 Ex. 59, reference compound] |

— patent US9328090B2, “Arylethynyl derivatives” (Hoffmann-La Roche Inc., priority 2012, dated 2016)
